The values that follow are results of earlier work, collected in patent EP3074407B1, “COMPOUND AND METHOD FOR SELECTIVE RADIOLABELLING OF POLYPEPTIDES BY MEANS OF SOLID-PHASE SYNTHESIS” (Freie Universität Berlin, priority 2013, dated 2015).

For series [1] the following is noted: PET, Menschen, Primaten und Nagetieren; cited from earlier work.
The conditions of series [2]: literature (Breeman et al. 1996); cited from earlier work.

For `FC(F)(F)c1nnnn1-c1ccc(OC[18F])c(CN[C@H]2CCCN[C@H]2c2ccccc2)c1` [18F-SPA-RQ], the “Aufnahme im Gehirn” value in series [1] was “hohe Aufnahme”.

“[indium111-DTPA-Argl]substance P [In^111 markierten Substanz P-Agonisten]”: the “Durchlässigkeit der Blut-Hirn-Schranke” value in series [2] was “undurchlässig”.
